Results on 1 compound are retold here after US20260297081A1, “COMPOUNDS AND METHODS OF TREATING CANCERS” (Cullgen Inc., priority 2023, published 2026).

Holding throughout (format): cell-based
In one experiment the test system is HCC1428 cells. As to the kind of experiment: Annexin V apoptosis flow cytometry, HCC1428 (FIG. 3B). As to conditions: HCC1428, dose approximating IC90, 6 days. The method, then:
T47D cells were treated with DMSO, palbociclib, heterobifunctional compound CPD-10 for 6 days at doses approximating IC50 and IC90 concentrations as indicated (FIG. 3A). HCC1428 cells were treated with DMSO, palbociclib, heterobifunctional compound CPD-10, or its negative control compound CPD-143 for 6 days at doses approximating IC90 concentrations as indicated (FIG. 3B). Cells were harvested by trypsinization, staining was carried out using the Annexin V Apoptosis Detection Kit.
Assays were performed on the CytoFLEX Cytometer (Beckman Coulter), and data were analyzed using CytExpert software. For cell death and apoptosis analysis, cells were harvested by trypsinization, staining was carried out using the Annexin V Apoptosis Detection Kit (BD Biosciences). Briefly, cells were resuspended in 1× binding buffer and incubated with fluorochrome-conjugated Annexin V and 7-AAD for 15 min in darkness at room temperature.
(In flow cytometry, cells or beads pass a laser one at a time.)

Experiment [1] has as its system CCND1, CCND3, and CDK4 in Calu-1 cells. As to the kind of experiment: Immunoblot of CCND1, CCND3 and CDK4 protein levels in Calu-1 cells (FIG. 1A, 4 hours). The conditions noted are these: Calu-1, reduction of CCND1, CCND3, and CDK4 protein levels. The protocol: Specific exemplary heterobifunctional compounds were characterized in Calu-1, MCF7, T47D and other cells. Cells that express cyclin D1-3 and CDK4/6 proteins were treated with heterobifunctional compounds disclosed herein at indicated concentrations. MCF7 cells were deprived of serum for 2 hours followed by the treatment with heterobifunctional compounds. Cells were collected, lysed and subject to immunoblotting using an antibody specific to CCND1, CCND2, CCND3, CDK4, or FoxM1, cyclin A2, or phosphorylated Rb (S807/811) proteins. Tubulin or GAPDH was used as the loading control. DMSO treatment was used as the negative control.

The next experiment relates to MCF7 cells. Kind of experiment: Anti-proliferation (viability) of MCF7 cells (Table 7, FIG. 2B). As to conditions: Homo sapiens, MCF7, MCF7 cells, 3-6 days, 10-point serial dilution; read-out: GI IC50 in MCF-7.
The next experiment deals with FoxM1. Kind of experiment: Immunoblotting of FoxM1 protein level (FIG. 1A-1B). As to conditions: Calu-1 (4 hours), MCF7 (24 hours). The method, then:
(§1) Calu-1 cells were treated with heterobifunctional compound CPD-10, or CDK4/6 inhibitor palbociclib at indicated concentrations for 4 hours (FIG. 1A). MCF7 cells were deprived of serum for 2 hours followed by treatment with CPD-10, or palbociclib at indicated concentrations for 24 hours (FIG. 1B).
(§2) Antibody and Reagent Anti-cyclin D1 (29785), anti-cyclin D2 (3741S), anti-cyclin D3 (2936S), anti-CDK4 (127905), anti-CDK6 (3136S), anti-phospho-Rb (8516S), anti-FoxM1 (54365), anti-cyclinA2(4656S), anti-vinculin antibody (187995) antibodies were purchased from Cell Signaling Technology. HRP-conjugated anti-α-tubulin antibody and anti-α-GAPDH antibody were purchased from GNI. Media, and other cell culture reagents were purchased from Thermo Fisher Scientific. CellTiter-Glo Luminescent Assay kit was purchased from Promega.
(§3) Calu-1, T47D, MCF7, HCC1428 and other cells were cultured at 37° C. with 5% CO2 in RPMI 1640 or DMEM medium supplemented with 10% fetal bovine serum. Cells were authenticated using the short tandem repeat (STR) assays. […]
(§4) Cultured cells were washed with cold PBS once and lysed in cold RIPA buffer supplemented with protease inhibitors and phosphatase inhibitors (Beyotime Biotechnology). […] Total protein concentrations in the lysates were determined following BCA assays (Beyotime Biotechnology). […] Protein bands were quantitated using the Image Lab software provided by Bio-Rad.
(In general: Immunoblotting shows a protein as a band on a membrane.)

In a further experiment the test system is T47D cells. As to the kind of experiment: Anti-proliferation (viability) of ER+ breast cancer T47D cells, 6 days (Table 7, FIG. 2B). The conditions noted are these: Homo sapiens, 144 h; T47D cells, 6 days, 10-point serial dilution; read-out: GI IC50 in T47D. The procedure, abridged:
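Heterobifunctional compounds are tested in 10-point serial dilutions on Calu-1 (3-day exposure) and T47D (6-day exposure) cells.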

Experiment [2] deals with T1, CDK4 (Homo sapiens, UniProt P11802+Q16531). Kind of experiment: Immunoblotting of CDK4 protein level in Calu-1 and MCF7 cells (FIG. 1A-1B). Details: Cells that express cyclin D1-3 and CDK4/6 proteins were treated with heterobifunctional compounds; endogenous in cells; host or cells: Calu-1. The method, then:
as §1, §2
(§5) Calu-1, T47D, MCF7, HCC1428 and other cells were cultured at 37° C. with 5% CO2 in RPMI 1640 or DMEM medium supplemented with 10% fetal bovine serum. Cells were authenticated using the short tandem repeat (STR) assays. Mycoplasma test results were negative. For palbo-resistant cell model, T47D cells were cultured long-term to resistance in the presence of 1 μM Palbociclib. Cells were deemed resistant when growing in the presence of Palbo at the same rate as parental cells.
(§6) Cultured cells were washed with cold PBS once and lysed in cold RIPA buffer supplemented with protease inhibitors and phosphatase inhibitors (Beyotime Biotechnology). The solutions were then incubated at 4 ? for 30 min with gentle agitation to fully lysed cells. Cell lysates were centrifuged at 13,000 rpm for 10 min at 4 ? and pellets were discarded. Total protein concentrations in the lysates were determined following BCA assays (Beyotime Biotechnology). Cell lysates were mixed with Laemmli loading buffer and heated at 99° C. for 5 min. Proteins were resolved on SDS-PAGE and visualized using Western ECL Substrate kits on a ChemiDoc MP Imaging system (Bio-Rad). Protein bands were quantitated using the Image Lab software provided by Bio-Rad.

The test system of a further experiment is CCND1. As to the kind of experiment: Immunoblotting of CCND1 protein level in Calu-1 and MCF7 cells (FIG. 1A-1B). The method, then:
as §1, §2, §5, §6

Another experiment has as its system p-Rb. Kind of experiment: Immunoblotting of Rb phosphorylation (FIG. 1A-1B). As to conditions: Calu-1 (4 hours), MCF7 (24 hours). The protocol: as §1, §2, §3, §4
The next experiment relates to cyclin A2. Kind of experiment: Immunoblotting of cyclin A2 protein level (FIG. 1A-1B). The conditions noted are these: Calu-1 (4 hours), MCF7 (24 hours). The protocol:
as §1, §2, §3, §4

Experiment [3] has as its target T1, CDK4. As to the kind of experiment: CDK4 percentage degradation in Calu-1 cells (Table 6). As to conditions: 16 hours. Details: Cells that express cyclin D1-3 and CDK4/6 proteins were treated with heterobifunctional compounds; endogenous in cells; host or cells: Calu-1. The procedure, abridged:
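Calu-1 cells exposed to heterobifunctional compounds at 40 nM or 200 nM for 16 h. Cyclin D1 and CDK4 levels measured by Western blot of RIPA lysates (BCA-normalised loading), bands quantified by densitometry and expressed as percentage degradation.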

Experiment [4] relates to T47D palbo-resistant cells. As to the kind of experiment: CellTiter-Lumi cell viability assay, T47D palbo-resistant cells, 6 days (FIG. 4). As to conditions: Homo sapiens, 144 h. The protocol: Furthermore, we developed one ER^+ breast cancer T47D model with acquired resistance after long period of treatment with 1 μM palbociclib (over IC90). Cells were deemed resistant when growing in the presence of palbo at the same rate as parental cells. Palbo resistance was determined by CellTiter-Lumi cell viability assay (FIG. 4, IC50>10,000 nM).

Setting [5] is: MCF7 cells, serum deprived 2 hours, treated 24 hours.

SMILES strings stand for the structures. pIC50: −log10 of the molar value.

T1 sequence (P11802 2-303 limits assumed): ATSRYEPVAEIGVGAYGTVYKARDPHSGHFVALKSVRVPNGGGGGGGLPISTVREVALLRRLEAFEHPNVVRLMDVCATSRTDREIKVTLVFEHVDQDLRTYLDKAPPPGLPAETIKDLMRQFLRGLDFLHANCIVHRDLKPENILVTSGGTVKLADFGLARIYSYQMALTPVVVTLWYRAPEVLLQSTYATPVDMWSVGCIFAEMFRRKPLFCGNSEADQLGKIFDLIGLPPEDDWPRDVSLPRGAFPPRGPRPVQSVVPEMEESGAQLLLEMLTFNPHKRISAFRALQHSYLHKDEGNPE
T1 sequence (P24385 whole entry partner): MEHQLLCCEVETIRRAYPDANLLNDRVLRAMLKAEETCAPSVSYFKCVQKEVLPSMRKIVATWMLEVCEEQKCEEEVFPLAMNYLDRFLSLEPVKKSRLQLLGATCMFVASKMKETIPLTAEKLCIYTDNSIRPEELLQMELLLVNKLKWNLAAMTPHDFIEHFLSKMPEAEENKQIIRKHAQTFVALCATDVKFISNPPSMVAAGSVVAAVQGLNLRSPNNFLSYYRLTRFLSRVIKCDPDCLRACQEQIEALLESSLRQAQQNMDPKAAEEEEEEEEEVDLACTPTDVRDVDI
T1 sequence (Q16531 2-1140 limits assumed): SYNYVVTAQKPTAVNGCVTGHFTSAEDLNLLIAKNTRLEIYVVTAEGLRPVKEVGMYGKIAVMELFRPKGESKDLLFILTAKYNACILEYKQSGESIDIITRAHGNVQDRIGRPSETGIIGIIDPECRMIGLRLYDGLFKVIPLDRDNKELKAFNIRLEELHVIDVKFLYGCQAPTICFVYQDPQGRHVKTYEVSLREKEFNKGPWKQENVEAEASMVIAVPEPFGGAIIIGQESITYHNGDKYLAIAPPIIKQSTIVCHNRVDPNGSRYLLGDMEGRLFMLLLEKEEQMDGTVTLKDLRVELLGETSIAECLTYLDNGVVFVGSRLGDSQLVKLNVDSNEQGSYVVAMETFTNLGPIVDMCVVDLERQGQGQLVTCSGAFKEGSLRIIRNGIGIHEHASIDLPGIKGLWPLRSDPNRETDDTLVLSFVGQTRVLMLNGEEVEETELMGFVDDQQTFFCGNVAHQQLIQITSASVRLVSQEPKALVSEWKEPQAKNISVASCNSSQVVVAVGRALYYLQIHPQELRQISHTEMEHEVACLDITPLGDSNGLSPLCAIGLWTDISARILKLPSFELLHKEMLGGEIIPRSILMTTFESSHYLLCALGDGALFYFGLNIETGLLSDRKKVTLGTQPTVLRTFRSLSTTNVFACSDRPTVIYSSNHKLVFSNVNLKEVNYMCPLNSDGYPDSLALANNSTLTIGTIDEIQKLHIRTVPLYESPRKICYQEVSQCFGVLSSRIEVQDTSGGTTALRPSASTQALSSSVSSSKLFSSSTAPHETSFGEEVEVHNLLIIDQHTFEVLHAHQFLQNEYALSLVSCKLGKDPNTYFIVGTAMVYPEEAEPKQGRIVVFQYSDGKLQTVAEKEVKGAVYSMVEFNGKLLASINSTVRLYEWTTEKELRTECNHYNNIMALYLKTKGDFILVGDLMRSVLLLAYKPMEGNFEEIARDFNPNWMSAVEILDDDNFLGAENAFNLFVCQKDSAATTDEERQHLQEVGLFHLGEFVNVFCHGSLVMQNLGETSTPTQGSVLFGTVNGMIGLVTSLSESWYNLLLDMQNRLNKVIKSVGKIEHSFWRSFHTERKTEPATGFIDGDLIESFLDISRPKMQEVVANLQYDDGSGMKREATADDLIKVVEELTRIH

With `CNc1ccc(C(=O)Nc2ccc(N(C)C)nn2)c(NCCCCCCCNC(=O)CN2CCN(c3ccc(Nc4ncc5c(C)c(C(C)=O)c(=O)n(C6CCCC6)c5n4)nc3)CC2)n1` [CPD-10, 2-((7-(2-(4-(6-((6-acetyl-8-cyclopentyl-5-methyl-7-oxo-7,8-dihydropyrido[2,3-d]pyrimidin-2-yl)amino)pyridin-3-yl)piperazin-1-yl)acetamido)heptyl)amino)-N-(6-(dimethylamino)pyridazin-3-yl)-6-(methylamino)nicotinamide], in the experiment on HCC1428 cells, the “Annexin V+ population” value amounted to 55.8%. Also, the DC50 in [1] was under 5 nM. Moreover, the pIC50 was 7.00 to 7.30 in the experiment on MCF7 cells, at least 7.30 in the experiment with T47D cells and 7.48 in [4]. Besides, in the experiment on FoxM1, the FoxM1 protein level result is “inhibited downstream FoxM1 and cyclin A2 protein levels, and Rb phosphorylation in a concentration-dependent manner”. Besides, the CDK4 protein level result on CDK4 [2] (Calu-1 cells, 4 hours) was “reduced CCND1, CCND3, and CDK4 protein levels in a concentration-dependent manner in both cell lines”; on CDK4 [2] (setting [5]) it was “reduced CCND1, CCND3, and CDK4 protein levels in a concentration-dependent manner in both cell lines”. For the same compound, the CCND1 protein level result was “reduced CCND1, CCND3, and CDK4 protein levels in a concentration-dependent manner in both cell lines” in the experiment with CCND1 (Calu-1 cells, 4 hours); “reduced CCND1, CCND3, and CDK4 protein levels in a concentration-dependent manner in both cell lines” in the experiment with CCND1 (setting [5]). Also, the Rb phosphorylation entry with p-Rb is “inhibited downstream FoxM1 and cyclin A2 protein levels, and Rb phosphorylation in a concentration-dependent manner”. Besides, the “cyclin A2 protein level” value in the experiment with cyclin A2 is “inhibited downstream FoxM1 and cyclin A2 protein levels, and Rb phosphorylation in a concentration-dependent manner”. Also, on CDK4 [3] (40 nM), the inhibition at 0.04 µM lay in the range of 50 to 80%. The inhibition at 0.2 µM against CDK4 [3] (200 nM) is over 80%.

One may read the pIC50 as −log10 of the IC50, conventionally taken in molar units. In general, inhibition refers to the share of the control response that was lost under treatment. Lower therefore signals a weak effect.
